Assay results from patent US11357749B2, “Methods for treating neutropenia” (Enzychem Lifesciences Corporation, priority 2014, dated 2022).

What was measured:
HepG2 cells = assay: WST-1 cell viability assay in HepG2 cells; assay type: cell-based; conditions: HepG2, PLAG 1 to 100 μg/ml
Protocol: The incubated HepG2 cell lines are treated with PLAG (1˜100 μg/ml), followed by IL-4 and TNF-α, reacted for 1 hour, incubated for 18 hours at 37° C. and the supernatant isolated. Quantitation of the amount of C3 in the cellular culture medium (supernatant) from HepG2 cells is performed by ELISA using a commercially available monoclonal antibody (mAb, R&D Systems) and the manufacture's protocol; the results are presented in FIG. 3. C3 is expressed spontaneously under in vitro culture condition using 10% FCS added to HepG2 cells incubated for 12 hr. The cells are treated with different doses of PLAG from 1 to 100 μg/ml (Panel A, Panel B) or 10 and 100 μg/ml of S6I (Panel C), reacted with IL-4 and TNF-α for 1 hr and then incubated for 18 hr at 37° C. Cellular viability is confirmed using the WST-1 assay (Panel A).

neutrophils = assay: Chemotherapy-induced neutropenia mouse model (neutrophil count, survival); assay type: in vivo, mice
Protocol: The effect of PLAG for treatment of neutropenia and thrombocytopenia induced by chemotherapy (CIN) is evaluated in an animal model. Anti-cancer agents (Gemcitabine 50 mg/kg, Cyclosphosphamide 100 mg/kg, or Tamoxifen 50 mg/kg) are dosed daily for 3 weeks; PLAG is also administered 50 mg/kg daily for 3 weeks. After three weeks, neutrophils are harvested and counted with Auto Hematology Analyzer BC-5300.

[1] = system: neutrophils and lymphocytes; assay: Neutrophil and lymphocyte ratio in blood of LPS-treated Balb/C mice; assay type: in vivo; conditions: LPS 1 mg/kg i.p. + PLAG 5 mg/kg oral, % of total leukocytes
Protocol: To observe the ratio of neutrophil and lymphocyte in the blood of Balb/C mice, 1 mg/kg of lipopolysaccharide (LPS) is injected to mice, i.p. to induce inflammation. 5 mg/kg of PLAG is administered to the mice orally and blood samples are taken at 3 and 13 days after. In addition, for comparison, normal mice that are not treated with PLAG, receive PBS (phosphate buffered saline) and olive oil. The blood samples taken from the mice are treated with EDTA bottle 0.5 ml (Minocollect tube, Greiner bio-one, Austria) and the level of neutrophils (NEU) and lymphocytes (LYM) as a percentage of total leukocytes is measured using automated blood sample analyzer BC-6800 (Mindray, Shenzhen, China).

For CCCCC/C=C\C/C=C\CCCCCCCC(=O)OC(COC(C)=O)COC(=O)CCCCCCCCCCCCCCC (racemic) [PLAG, 1-palmitoyl-2-linoleoyl-3-acetylglycerol], the “cellular viability (WST-1)” value (HepG2 cells) was “does not affect the cellular propagation and death”, the “reduced neutrophil count following chemotherapy” value (neutrophils; Gemcitabine 50 mg/kg, Cyclosphosphamide 100 mg/kg or Tamoxifen 50 mg/kg daily, PLAG 50 mg/kg daily, 3 weeks) was “prevented” and the survival rate (neutrophils; PLAG with Gemcitabine vs Gemcitabine alone) was “improved survival rate”. The “activities and survival rate” value (neutrophils; Tamoxifen 50 mg/kg co-treated with PLAG vs Tamoxifen only) was “faster improvement of activities and survival rate”, the neutrophil score (neutrophils; mice treated with PLAG 50 mg/kg and Gemcitabine 50 mg/kg daily, 3 weeks) was “improved significantly” and the neutrophil count (neutrophils; mice treated with PLAG 50 mg/kg and cyclophosphamide 100 mg/kg daily, 3 weeks, vs control group) was “improved significantly”. For the same compound, the Lymphocyte ratio [1] was 34.6 ± 7.0% and the “Neutrophil Ratio” value [1] was 53.2 ± 6.3%.
